From the supplement of paper PMC11061612

Legend:
Assay in all cases: combination Emax (second highest fraction inhibited in the dose matrix, 72 h); higher = more inhibition; extreme values may be limits of the assay
[1] = system: A204 (Rhabdomyosarcoma)
In short: (§1)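 Cell lines in DMEM/F12 or RPMI with 10% FBS were plated in 1536-well plates, held 24 hours at 37°C, 5% CO2, then given two-drug dose matrices for 72 hours (DMSO typically 0.2%). Viability was read by CellTiter-Glo 2.0 luminescence and scaled as inhibition from 0 (vehicle wells) to 1 (blank wells). Combination Emax is the second-highest inhibition in the matrix; Bliss excess is observed combination effect minus expected EA + EB − EA·EB, EA and EB being single-agent effects.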

[2] = system: COLO-792 (Melanoma)
In short: as §1

[3] = system: GA-10 (Burkitt's Lymphoma)
In short: as §1

[4] = system: OACp4C (Esophageal Adenocarcinoma)
In short: as §1

[5] = system: KYSE-220 (Esophageal Squamous Cell Carcinoma)
In short: as §1

[6] = system: 5637 (Bladder Carcinoma)
In short: as §1

[7] = system: ESO26 (Esophageal Adenocarcinoma)
In short: as §1

[8] = system: Jurkat (T-Lymphoblastic Leukemia)
In short: as §1

[9] = system: AU565 (Breast Carcinoma)
In short: as §1

[10] = system: JIMT-1 (Breast Carcinoma)
In short: as §1

[11] = system: NCI-H1651 (Lung Adenocarcinoma)
In short: as §1

[12] = system: huH-1 (Hepatocellular Carcinoma)
In short: as §1

[13] = system: 22RV1 (Prostate Carcinoma)
In short: as §1

[14] = system: CGTH-W-1 (Thyroid Gland Carcinoma)
In short: as §1

[15] = system: A101D (Melanoma)
In short: as §1

[16] = system: EW-16 (Ewing's Sarcoma)
In short: as §1

[17] = system: A2780 (Ovarian Carcinoma)
In short: as §1

[18] = system: NCI-H1703 (Squamous Cell Lung Carcinoma)
In short: as §1

[19] = system: NCI-H2228 (Lung Adenocarcinoma)
In short: as §1

[20] = system: EPLC-272H (Other Solid Carcinomas)
In short: as §1

CC1(C)CCC(CN2CCN(c3ccc(C(=O)NS(=O)(=O)c4ccc(NCC5CCOCC5)c([N+](=O)[O-])c4)c(Oc4cnc5[nH]ccc5c4)c3)CC2)=C(c2ccc(Cl)cc2)C1 [Venetoclax] + C[C@@H]1COCCN1C2=NC(=NC(=C2)C3(CC3)[S@](=N)(=O)C)C4=C5C=CNC5=NC=C4 [AZD6738] (first compound max 1 µM, 7x7, partner max 10 µM)
combination Emax [1]: 0.479 | combination Emax [2]: 0.316 | combination Emax [3]: 0.976 | combination Emax [4]: 0.711 | combination Emax [5]: 0.875 | combination Emax [6]: 0.69 | combination Emax [7]: 0.508 | combination Emax [8]: 0.921 | combination Emax [9]: 0.382 | combination Emax [10]: 0.722 | combination Emax [11]: 0.652 | combination Emax [12]: 0.597 | combination Emax [13]: 0.599 | combination Emax [14]: 0.366 | combination Emax [15]: 0.91 | combination Emax [16]: 0.792 | combination Emax [17]: 0.797 | combination Emax [18]: 0.883 | combination Emax [19]: 0.476 | combination Emax [20]: 0.873

CN(C)CCCOc1ccc(-c2ccc3ncc4c(c3c2)n(C2CCOCC2)c(=O)n4C)cn1 [AZD0156] + CCN(CCO)CCCOc1ccc2c(Nc3cc(CC(=O)Nc4cccc(F)c4)[nH]n3)ncnc2c1 [AZD2811] (first compound max 1 µM, 7x7, partner max 1 µM)
combination Emax [1]: 0.297 | combination Emax [2]: 0.358 | combination Emax [3]: 0.808 | combination Emax [4]: 0.598 | combination Emax [5]: 0.142 | combination Emax [6]: 0.609 | combination Emax [7]: 0.0581 | combination Emax [8]: 0.309 | combination Emax [9]: 0.208 | combination Emax [10]: 0.0631 | combination Emax [11]: 0.107 | combination Emax [12]: 0.317 | combination Emax [13]: 0.267 | combination Emax [14]: 0.196 | combination Emax [15]: 0.203 | combination Emax [16]: 0.423 | combination Emax [17]: 0.609 | combination Emax [18]: 0.506 | combination Emax [19]: 0.384 | combination Emax [20]: 0.415

CS(=O)(=O)CCNCc1ccc(-c2ccc3ncnc(Nc4ccc(OCc5cccc(F)c5)c(Cl)c4)c3c2)o1 [Lapatinib] + C[C@@H](Oc1cc(-c2cnn(C3CCNCC3)c2)cnc1N)c1c(Cl)ccc(F)c1Cl [Crizotinib] (first compound max 10 µM, 7x7, partner max 10 µM)
combination Emax [1]: 0.498 | combination Emax [2]: 0.981 | combination Emax [3]: 0.98 | combination Emax [4]: 1 | combination Emax [5]: 0.994 | combination Emax [6]: 1 | combination Emax [7]: 0.854 | combination Emax [8]: 0.947 | combination Emax [9]: 0.959 | combination Emax [10]: 0.851 | combination Emax [11]: 0.566 | combination Emax [12]: 0.671 | combination Emax [13]: 0.706 | combination Emax [14]: 0.853 | combination Emax [15]: 0.971 | combination Emax [16]: 0.969 | combination Emax [17]: 0.98 | combination Emax [18]: 0.746 | combination Emax [19]: 0.769 | combination Emax [20]: 0.959

CCc1c2c(nc3ccc(O)cc13)-c1cc3c(c(=O)n1C2)COC(=O)[C@]3(O)CC [SN-38] + CN(C)CCCOc1ccc(-c2ccc3ncc4c(c3c2)n(C2CCOCC2)c(=O)n4C)cn1 [AZD0156] (first compound max 0.3 µM, 7x7, partner max 1 µM)
combination Emax [1]: 0.59 | combination Emax [2]: 0.361 | combination Emax [3]: 0.913 | combination Emax [4]: 0.714 | combination Emax [5]: 0.947 | combination Emax [6]: 0.802 | combination Emax [7]: 0.655 | combination Emax [8]: 0.999 | combination Emax [9]: 0.8 | combination Emax [10]: 0.266 | combination Emax [11]: 0.852 | combination Emax [12]: 0.762 | combination Emax [13]: 0.683 | combination Emax [14]: 0.771 | combination Emax [15]: 0.674 | combination Emax [16]: 0.978 | combination Emax [17]: 0.726 | combination Emax [18]: 0.875 | combination Emax [19]: 0.716 | combination Emax [20]: 0.755

CC1(C)CCC(CN2CCN(c3ccc(C(=O)NS(=O)(=O)c4ccc(NCC5CCOCC5)c([N+](=O)[O-])c4)c(Oc4cnc5[nH]ccc5c4)c3)CC2)=C(c2ccc(Cl)cc2)C1 [Venetoclax] + C=CCn1c(=O)c2cnc(Nc3ccc(N4CCN(C)CC4)cc3)nc2n1-c1cccc(C(C)(C)O)n1 [AZD1775] (first compound max 1 µM, partner max 1 µM)
combination Emax [1]: 0.325 | combination Emax [2]: 0.399 | combination Emax [3]: 1 | combination Emax [4]: 0.897 | combination Emax [5]: 0.832 | combination Emax [6]: 0.861 | combination Emax [7]: 0.682 | combination Emax [8]: 0.907 | combination Emax [9]: 0.672 | combination Emax [10]: 0.573 | combination Emax [11]: 0.589 | combination Emax [12]: 0.501 | combination Emax [13]: 0.513 | combination Emax [14]: 0.377 | combination Emax [15]: 0.736 | combination Emax [16]: 0.526 | combination Emax [17]: 0.927 | combination Emax [18]: 0.977 | combination Emax [19]: 0.494 | combination Emax [20]: 0.761

Cn1cnc2c(F)c(Nc3ccc(Br)cc3Cl)c(C(=O)NOCCO)cc21 [Selumetinib] + CC(C)n1c(=O)n(C)c2cnc3cc(F)c(-c4ccc(OCCCN5CCCCC5)nc4)cc3c21 [AZD1390] (first compound max 10 µM, 7x7, partner max 0.3 µM)
combination Emax [1]: 0.149 | combination Emax [2]: 0.498 | combination Emax [3]: 0.165 | combination Emax [4]: 0.43 | combination Emax [5]: 0.405 | combination Emax [6]: 0.236 | combination Emax [7]: 0.115 | combination Emax [8]: 0.124 | combination Emax [9]: 0.146 | combination Emax [10]: 0.131 | combination Emax [11]: 0.125 | combination Emax [12]: 0.107 | combination Emax [13]: 0.307 | combination Emax [14]: 0.044 | combination Emax [15]: 0.528 | combination Emax [16]: 0.134 | combination Emax [17]: 0.574 | combination Emax [18]: 0.122 | combination Emax [19]: 0.203 | combination Emax [20]: 0.651

Cc1c2c(nn1C)CSCc1cc(n(C)n1)CSc1cc(c3ccccc3c1)OCCCc1c(C(=O)O)n(C)c3c-2c(Cl)ccc13 [AZD5991] + C[C@@H](Nc1cc(F)cc(F)c1)c1cc(C(=O)N(C)C)cc2c(=O)cc(N3CCOCC3)oc12 [AZD8186] (first compound max 1 µM, 7x7, partner max 3 µM)
combination Emax [1]: 0.785 | combination Emax [2]: 0.999 | combination Emax [3]: 0.869 | combination Emax [4]: 0.664 | combination Emax [5]: 0.177 | combination Emax [6]: 0.25 | combination Emax [7]: 0.284 | combination Emax [8]: 0.913 | combination Emax [9]: 1 | combination Emax [10]: 0.304 | combination Emax [11]: 0.155 | combination Emax [12]: 0.192 | combination Emax [13]: 0.48 | combination Emax [14]: 0.319 | combination Emax [15]: 0.952 | combination Emax [16]: 0.281 | combination Emax [17]: 0.835 | combination Emax [18]: 0.87 | combination Emax [19]: 0.321 | combination Emax [20]: 0.916

NC1(C(=O)N[C@@H](CCO)c2ccc(Cl)cc2)CCN(c2ncnc3[nH]ccc23)CC1 [Capivasertib] + Cn1cnc2c(F)c(Nc3ccc(Br)cc3Cl)c(C(=O)NOCCO)cc21 [Selumetinib] (first compound max 10 µM, 7x7, partner max 10 µM)
combination Emax [1]: 0.498 | combination Emax [2]: 0.8 | combination Emax [3]: 0.77 | combination Emax [4]: 0.987 | combination Emax [5]: 0.763 | combination Emax [6]: 0.395 | combination Emax [7]: 0.523 | combination Emax [8]: 0.686 | combination Emax [9]: 0.64 | combination Emax [10]: 0.407 | combination Emax [11]: 0.177 | combination Emax [12]: 0.464 | combination Emax [13]: 0.625 | combination Emax [14]: 0.47 | combination Emax [15]: 0.785 | combination Emax [16]: 0.393 | combination Emax [17]: 0.828 | combination Emax [18]: 0.606 | combination Emax [19]: 0.58 | combination Emax [20]: 0.982

CN(C)CCCOc1ccc(-c2ccc3ncc4c(c3c2)n(C2CCOCC2)c(=O)n4C)cn1 [AZD0156] + O=C(c1cc(Cc2n[nH]c(=O)c3ccccc23)ccc1F)N1CCN(C(=O)C2CC2)CC1 [Olaparib] (first compound max 3 µM, partner max 3 µM)
combination Emax [1]: 0.467 | combination Emax [2]: 0.294 | combination Emax [3]: 0.741 | combination Emax [4]: 0.406 | combination Emax [5]: 0.54 | combination Emax [6]: 0.439 | combination Emax [7]: 0.206 | combination Emax [8]: 0.511 | combination Emax [9]: 0.631 | combination Emax [10]: 0.0881 | combination Emax [11]: 0.493 | combination Emax [12]: 0.174 | combination Emax [13]: 0.483 | combination Emax [14]: 0.214 | combination Emax [15]: 0.411 | combination Emax [16]: 0.412 | combination Emax [17]: 0.595 | combination Emax [18]: 0.582 | combination Emax [19]: 0.439 | combination Emax [20]: 0.503

CC(=O)c1c(C)c2cnc(Nc3ccc(N4CCNCC4)cn3)nc2n(C2CCCC2)c1=O [Palbociclib] + Cn1cnc2c(F)c(Nc3ccc(Br)cc3Cl)c(C(=O)NOCCO)cc21 [Selumetinib] (first compound max 10 µM, 7x7, partner max 10 µM)
combination Emax [1]: 0.399 | combination Emax [2]: 0.5 | combination Emax [3]: 0.941 | combination Emax [4]: 0.557 | combination Emax [5]: 0.66 | combination Emax [6]: 0.345 | combination Emax [7]: 0.299 | combination Emax [8]: 0.386 | combination Emax [9]: 0.277 | combination Emax [10]: 0.0628 | combination Emax [11]: 0.0478 | combination Emax [12]: 0.167 | combination Emax [13]: 0.463 | combination Emax [14]: 0.14 | combination Emax [15]: 0.588 | combination Emax [16]: 0.311 | combination Emax [17]: 0.825 | combination Emax [18]: 0.584 | combination Emax [19]: 0.335 | combination Emax [20]: 0.7
